According to publication PMC12616683, “In Vivo Atlas of Neuroprotective Cyclic Dipeptides Derived from Food Gelatin Using Peptidomics and Feature-Based Molecular Networking” (Journal of Agricultural and Food Chemistry, 2025):
Square brackets hold non-standard residues; d marks the D form. Peptide text beside a SMILES is read from it. pGlu = O=C1CC[CH](C(=O)O)N1

Test: FBMN analysis of short peptides in small intestine contents and serum after oral DHG
Settings: small intestine contents, 30 min after oral DHG, C57 mice; FBMN feature intensity, peptides smaller than 690 Da

First: O=C1CCC(C(=O)NC(Cc2ccc(O)cc2)C(=O)O)N1 (centres unmarked) [PyroGlu-Tyr] ([pGlu]-Tyr-OH; configuration not given here)
Second: CC(C)[C@H](NC(=O)[C@@H](N)Cc1ccc(O)cc1)C(=O)O [Tyr-Val] (H-Tyr-Val-OH)
The “Peptide signal (feature intensity) in the small intestine, 30 min” value (“Peptide signal (feature intensity) … 30 min” below) of the first is lower: 0.00E+00 for the first, 2.96E+06 for the second.

Compared with `CC[C@H](C)[C@H](NC(=O)CN)C(=O)O` [Gly-Ile] (H-Gly-Ile-OH), `CC(C)C[C@H](NC(=O)CN)C(=O)O` [Gly-Leu] is lower in “Peptide signal (feature intensity) … 30 min” value: 1.17E+07 for the first, 0.00E+00 for the second.

`CC[C@H](C)[C@H](N)C(=O)N[C@@H](CCC(=O)O)C(=O)N[C@@H](CCCCN)C(=O)O` [Ile-Glu-Lys] (H-Ile-Glu-Lys-OH) and `CC(C)C[C@H](N)C(=O)N[C@H](C(=O)N[C@@H](CCCCN)C(=O)O)C(C)C` [Leu-Val-Lys] (H-Leu-Val-Lys-OH) are the same in “Peptide signal (feature intensity) … 30 min” value: 0.00E+00 for the first, 0.00E+00 for the second.

Compared with `N[C@@H](Cc1cnc[nH]1)C(=O)N1CCC[C@H]1C(=O)O` [His-Pro], `C[C@@H](O)[C@H](NC(=O)[C@@H](N)Cc1ccccc1)C(=O)O` [Phe-Thr] is lower in “Peptide signal (feature intensity) … 30 min” value: 4.26E+07 for the first, 4.05E+04 for the second.

Compared with `CSCCC(N)C(=O)NC(C(=O)O)C(C)C` (stereo not drawn) [Met-Val] (H-Met-Val-OH; configuration not given here), `CC(C)C[C@H](N)C(=O)N[C@@H](C)C(=O)O` [Leu-ala] (H-Leu-Ala-OH) is higher in “Peptide signal (feature intensity) … 30 min” value: 0.00E+00 for the first, 1.85E+06 for the second.

Compared with `N[C@@H](CO)C(=O)N[C@@H](Cc1ccccc1)C(=O)O` [Ser-Phe], `CC(C)[C@H](N)C(=O)N[C@@H](Cc1ccccc1)C(=O)O` [Val-Phe] (H-Val-Phe-OH) is higher in “Peptide signal (feature intensity) … 30 min” value: 0.00E+00 for the first, 1.38E+06 for the second.

Compared with `CC[C@H](C)[C@H](N)C(=O)N[C@@H](CC(C)C)C(=O)O` [Ile-Leu] (H-Ile-Leu-OH), `CC[C@H](C)[C@H](N)C(=O)N[C@@H](CC(N)=O)C(=O)O` [Ile-Asn] (H-Ile-Asn-OH) is higher in “Peptide signal (feature intensity) … 30 min” value: 3.18E+06 for the first, 7.93E+06 for the second.

Same assay, conditions: small intestine contents, 60 min after oral DHG, C57 mice; FBMN feature intensity, peptides smaller than 690 Da

Compared with `O=C1CCC(C(=O)NC(Cc2ccc(O)cc2)C(=O)O)N1` (centres unmarked) [PyroGlu-Tyr] ([pGlu]-Tyr-OH; configuration not given here), `CC(C)[C@H](NC(=O)[C@@H](N)Cc1ccc(O)cc1)C(=O)O` [Tyr-Val] (H-Tyr-Val-OH) is lower in “Peptide signal (feature intensity) in the small intestine, 60 min” value (shortened to “Peptide signal (feature intensity) … 60 min”): 2.55E+07 for the first, 1.48E+06 for the second.

Going from `CC[C@H](C)[C@H](NC(=O)CN)C(=O)O` [Gly-Ile] (H-Gly-Ile-OH) to `CC(C)C[C@H](NC(=O)CN)C(=O)O` [Gly-Leu], the “Peptide signal (feature intensity) … 60 min” value rises from 1.01E+07 to 4.18E+07.

Compared with `CC[C@H](C)[C@H](N)C(=O)N[C@@H](CCC(=O)O)C(=O)N[C@@H](CCCCN)C(=O)O` [Ile-Glu-Lys] (H-Ile-Glu-Lys-OH), `CC(C)C[C@H](N)C(=O)N[C@H](C(=O)N[C@@H](CCCCN)C(=O)O)C(C)C` [Leu-Val-Lys] (H-Leu-Val-Lys-OH) is lower in “Peptide signal (feature intensity) … 60 min” value: 6.83E+05 for the first, 3.40E+05 for the second.

Compared with `N[C@@H](Cc1cnc[nH]1)C(=O)N1CCC[C@H]1C(=O)O` [His-Pro], `C[C@@H](O)[C@H](NC(=O)[C@@H](N)Cc1ccccc1)C(=O)O` [Phe-Thr] is lower in “Peptide signal (feature intensity) … 60 min” value: 5.51E+07 for the first, 6.53E+03 for the second.

First: CSCCC(N)C(=O)NC(C(=O)O)C(C)C (stereo not drawn) [Met-Val] (H-Met-Val-OH; configuration not given here)
Second: CC(C)C[C@H](N)C(=O)N[C@@H](C)C(=O)O [Leu-ala] (H-Leu-Ala-OH)
The “Peptide signal (feature intensity) … 60 min” value of the first is lower: 0.00E+00 for the first, 1.64E+06 for the second.

First: N[C@@H](CO)C(=O)N[C@@H](Cc1ccccc1)C(=O)O [Ser-Phe]
Second: CC(C)[C@H](N)C(=O)N[C@@H](Cc1ccccc1)C(=O)O [Val-Phe] (H-Val-Phe-OH)
The “Peptide signal (feature intensity) … 60 min” value of the first is lower: 1.38E+06 for the first, 1.78E+06 for the second.

Compared with `CC[C@H](C)[C@H](N)C(=O)N[C@@H](CC(C)C)C(=O)O` [Ile-Leu] (H-Ile-Leu-OH), `CC[C@H](C)[C@H](N)C(=O)N[C@@H](CC(N)=O)C(=O)O` [Ile-Asn] (H-Ile-Asn-OH) is higher in “Peptide signal (feature intensity) … 60 min” value: 3.36E+06 for the first, 7.66E+06 for the second.

Same assay, conditions: small intestine contents, 120 min after oral DHG, C57 mice; FBMN feature intensity, peptides smaller than 690 Da

`O=C1CCC(C(=O)NC(Cc2ccc(O)cc2)C(=O)O)N1` (centres unmarked) [PyroGlu-Tyr] ([pGlu]-Tyr-OH; configuration not given here) and `CC(C)[C@H](NC(=O)[C@@H](N)Cc1ccc(O)cc1)C(=O)O` [Tyr-Val] (H-Tyr-Val-OH) are the same in “Peptide signal (feature intensity) in the small intestine, 120 min” value (“Peptide signal (feature intensity) … 120 min” for short): 0.00E+00 for the first, 0.00E+00 for the second.

`CC[C@H](C)[C@H](NC(=O)CN)C(=O)O` [Gly-Ile] (H-Gly-Ile-OH) and `CC(C)C[C@H](NC(=O)CN)C(=O)O` [Gly-Leu] are the same in “Peptide signal (feature intensity) … 120 min” value: 0.00E+00 for the first, 0.00E+00 for the second.

Compared with `CC[C@H](C)[C@H](N)C(=O)N[C@@H](CCC(=O)O)C(=O)N[C@@H](CCCCN)C(=O)O` [Ile-Glu-Lys] (H-Ile-Glu-Lys-OH), `CC(C)C[C@H](N)C(=O)N[C@H](C(=O)N[C@@H](CCCCN)C(=O)O)C(C)C` [Leu-Val-Lys] (H-Leu-Val-Lys-OH) is higher in “Peptide signal (feature intensity) … 120 min” value: 0.00E+00 for the first, 8.97E+05 for the second.

`N[C@@H](Cc1cnc[nH]1)C(=O)N1CCC[C@H]1C(=O)O` [His-Pro] and `C[C@@H](O)[C@H](NC(=O)[C@@H](N)Cc1ccccc1)C(=O)O` [Phe-Thr] are the same in “Peptide signal (feature intensity) … 120 min” value: 0.00E+00 for the first, 0.00E+00 for the second.

First: CSCCC(N)C(=O)NC(C(=O)O)C(C)C (stereo not drawn) [Met-Val] (H-Met-Val-OH; configuration not given here)
Second: CC(C)C[C@H](N)C(=O)N[C@@H](C)C(=O)O [Leu-ala] (H-Leu-Ala-OH)
The “Peptide signal (feature intensity) … 120 min” value of the first is higher: 5.98E+05 for the first, 0.00E+00 for the second.

`N[C@@H](CO)C(=O)N[C@@H](Cc1ccccc1)C(=O)O` [Ser-Phe] and `CC(C)[C@H](N)C(=O)N[C@@H](Cc1ccccc1)C(=O)O` [Val-Phe] (H-Val-Phe-OH) are the same in “Peptide signal (feature intensity) … 120 min” value: 0.00E+00 for the first, 0.00E+00 for the second.

`CC[C@H](C)[C@H](N)C(=O)N[C@@H](CC(C)C)C(=O)O` [Ile-Leu] (H-Ile-Leu-OH) and `CC[C@H](C)[C@H](N)C(=O)N[C@@H](CC(N)=O)C(=O)O` [Ile-Asn] (H-Ile-Asn-OH) are the same in “Peptide signal (feature intensity) … 120 min” value: 0.00E+00 for the first, 0.00E+00 for the second.

Same assay, conditions: small intestine contents, 240 min after oral DHG, C57 mice; FBMN feature intensity, peptides smaller than 690 Da

First: O=C1CCC(C(=O)NC(Cc2ccc(O)cc2)C(=O)O)N1 (centres unmarked) [PyroGlu-Tyr] ([pGlu]-Tyr-OH; configuration not given here)
Second: CC(C)[C@H](NC(=O)[C@@H](N)Cc1ccc(O)cc1)C(=O)O [Tyr-Val] (H-Tyr-Val-OH)
The “Peptide signal (feature intensity) in the small intestine, 240 min” value (“Peptide signal (feature intensity) … 240 min” for short) of the first is higher: 1.33E+07 for the first, 0.00E+00 for the second.

First: CC[C@H](C)[C@H](NC(=O)CN)C(=O)O [Gly-Ile] (H-Gly-Ile-OH)
Second: CC(C)C[C@H](NC(=O)CN)C(=O)O [Gly-Leu]
The “Peptide signal (feature intensity) … 240 min” value of the first is lower: 0.00E+00 for the first, 4.47E+07 for the second.

Compared with `CC[C@H](C)[C@H](N)C(=O)N[C@@H](CCC(=O)O)C(=O)N[C@@H](CCCCN)C(=O)O` [Ile-Glu-Lys] (H-Ile-Glu-Lys-OH), `CC(C)C[C@H](N)C(=O)N[C@H](C(=O)N[C@@H](CCCCN)C(=O)O)C(C)C` [Leu-Val-Lys] (H-Leu-Val-Lys-OH) is lower in “Peptide signal (feature intensity) … 240 min” value: 2.93E+06 for the first, 2.22E+06 for the second.

Going from `N[C@@H](Cc1cnc[nH]1)C(=O)N1CCC[C@H]1C(=O)O` [His-Pro] to `C[C@@H](O)[C@H](NC(=O)[C@@H](N)Cc1ccccc1)C(=O)O` [Phe-Thr], the “Peptide signal (feature intensity) … 240 min” value falls from 8.49E+06 to 0.00E+00.

Compared with `CSCCC(N)C(=O)NC(C(=O)O)C(C)C` (stereo not drawn) [Met-Val] (H-Met-Val-OH; configuration not given here), `CC(C)C[C@H](N)C(=O)N[C@@H](C)C(=O)O` [Leu-ala] (H-Leu-Ala-OH) is lower in “Peptide signal (feature intensity) … 240 min” value: 1.03E+06 for the first, 0.00E+00 for the second.

Going from `N[C@@H](CO)C(=O)N[C@@H](Cc1ccccc1)C(=O)O` [Ser-Phe] to `CC(C)[C@H](N)C(=O)N[C@@H](Cc1ccccc1)C(=O)O` [Val-Phe] (H-Val-Phe-OH), the “Peptide signal (feature intensity) … 240 min” value falls from 4.01E+05 to 0.00E+00.

`CC[C@H](C)[C@H](N)C(=O)N[C@@H](CC(C)C)C(=O)O` [Ile-Leu] (H-Ile-Leu-OH) and `CC[C@H](C)[C@H](N)C(=O)N[C@@H](CC(N)=O)C(=O)O` [Ile-Asn] (H-Ile-Asn-OH) are the same in “Peptide signal (feature intensity) … 240 min” value: 0.00E+00 for the first, 0.00E+00 for the second.
